According to patent publication US12398121B2 (Nuvation Bio Inc., priority 2018, dated 2025):
Like-named read-outs stand apart in the source and are kept apart here.

Experiments:
22RV1 cells = experiment: Cell proliferation assay (CellTiter Glo), 22RV1; type: cell-based; details: Homo sapiens, 22Rv1, 72 h, read-out: 22RV1 IC50
Method: IC50 values were calculated and graphed using the model “log(inhibitor) vs. response—Variable slope” included in GraphPad Prism 5 (San Diego, CA). The Ki values were further calculated using the equation below where [L] was the radioligand concentration (1 nM) using in this study. Kd value was 0.332 nM. Ki=IC50/(1+[L]/Kd) c. AR transactivation: Human AR cloned into a CMV vector backbone was used for the transactivation study. HEK-293 cells were plated at 80,000 cells per well of a 24 well plate in DME+5% csFBS. Twenty four hours later, the cells were transfected using Lipofectamine (Invitrogen, Carlsbad, CA) with 0.25 μg GRE-LUC, 0.01 μg CMV-LUC (renilla luciferase) and 25 ng of the AR in OPTIMEM medium. The cells were treated 24 hrs after transfection with various ligands (10^−12 to 10^−5 M final concentrations) and luciferase assay were performed 48 hours after transfection. Firefly values were normalized to renilla luciferase values and the values were represented as relative light units (RLU). Agonist and antagonist assays for the test article were performed in the absence and in the combination with 0.1 nM R1881, respectively. Data were represented as EC50 (for agonists) and IC50 (for antagonists) obtained from four parameter logistics curve. Cell culture and proliferation assays: LNCaP, PC-3, 22RV1, MCF-7, HT-29, and HCT-116 cells were procured from American Type Culture Collection (ATCC). Cells were cultured in medium recommended by the ATCC. Cell culture medium was obtained from Fisher scientific (Waltham, MA) and serum was obtained from Hyclone (San Angelo, TX).
Cells were plated at varying density in the respective growth medium in 96 well plates. 24 hr later, cells were treated, in triplicate or quadruplicate, with test articles prepared in a range of concentrations by series dilution of DMSO stock solutions in growth medium and incubated for three to seven days. The number of viable 22RV1 and HT-29 cells was measured using CellTiter Glo assay (CTG, Promega, Madison, WI) after three days of treatment. The other types of cancer cells were re-treated at three or four days and the number of viable cells was measured using CTG assay after a total treatment time of six or seven days. Cell viability data were plotted using GraphPad Prism (GraphPad Software, Inc., San Diego, CA). In addition, a nonlinear regression model with a sigmoidal dose response and variable slope within GraphPad Prism was used to calculate the IC50 value of individual test articles. Additional cell proliferation assays: Other cancer cell lines are tested in a cell proliferation assay. For example, SK-OV-3 or OVCAR3 ovarian cancer cells are tested. Cells are cultured in medium recommended by the supplier (e.g., ATCC or JCRB Cell Bank), at 37° C. in a 5% CO2 environment. For the proliferation assay, cells are plated in the growth medium in 96 well plates. Seeding density is adjusted according to the cell type. 24 hr later, cells are treated, in triplicate or quadruplicate, with test articles prepared in a range of concentrations by series dilution of DMSO stock solutions in growth medium, and typically incubated for three to seven days, with test article-containing medium replaced after three or four days. The number of viable cells is measured using CellTiter Glo assay (CTG, Promega, Madison, WI) or similar. Cell viability data are plotted using GraphPad Prism (GraphPad Software, Inc., San Diego, CA). In addition, a nonlinear regression model with a sigmoidal dose response and variable slope within GraphPad Prism is used to calculate the IC50 value of individual test articles. Similarly, HEK-293 and HeLa calls can also be tested by methods known in the art. • f. Nuclear translocation: LNCaP cells are plated on coverslips in 24 well plates in growth medium. Twenty-four hours after plating, medium is changed to RPMI+1% csFBS and the cells are maintained in this medium for two days. Medium is replaced again and the cells are treated. […]

Human recombinant PARP2 = Human recombinant PARP2 (Homo sapiens, UniProt Q9UGN5); experiment: RBC HotSpot PARP2 radioisotope-based filter binding assay; type: biochemical
Method: The following methods are for evaluating the in vitro biology properties of the test articles. • a. RBC HotSpot Poly(ADP-ribose) Polymerases 1 (PARP1) and Poly(ADP-ribose) Polymerases 2 (PARP2) Assays: The assay principle is radioisotope-based filter binding assay where incorporation of radioisotope-labeled NAD^+ into the substrate captured on filter is detected after washout free NAD^+. Data were analyzed using Excel and GraphPad Prism software for IC50 curve fits. Each assay was conducted with PJ34 as a positive control. • i. PARP1 assay: Human recombinant PARP1 at a final concentration of 2.5 nM was combined with histone H4 (20 μM) and test articles at various concentrations in reaction buffer (50 mM Tris-HCL, pH 8.0, 50 mM NaCl, 10 mM MgCl2, 1 mM DTT, 1% DMSO, and 20 μg/mL activated DNA). The solution was inoculated for 20 min at room temperature and the reaction initiated by adding [adenylate-^32P]-Nicotinamide Adenine Dinucleotide, ^32P-NAD^+ at a final concentration of 10 μM. After incubation for 2 hour at room temperature, the reaction mixture was filtered and washed with 0.75% phosphoric acid for radioactivity detection. • ii. PARP2 assay: Human recombinant PARP2 at a final concentration of 2.5 nM was combined with histone H3 (20 μM) and test articles at various concentrations in reaction buffer (50 mM Tris-HCL, pH 8.0, 50 mM NaCl, 10 mM MgCl2, 1 mM DTT, 1% DMSO, and 20 μg/mL activated DNA). The solution was inoculated for 20 min at room temperature and the reaction was initiated by adding [adenylate-^32P]-Nicotinamide Adenine Dinucleotide, ^32P-NAD^+ at a final concentration of 10 μM. After incubation for 2 hour at room temperature, the reaction mixture was filtered and washed with 0.75% phosphoric acid for radioactivity detection. • b. AR binding assay: AR in LNCaP cytosol was used for determining the binding affinity of test articles and the reference compound—progesterone (Sigma, Cat: E2785, St. Louis, MO). IC50s were determined using 8 concentrations/compound. Cytosol was plated at 200 μg/well (100 μL) into a 96-well conical polypropylene plate (Agilent, Cat: 5042-1385, Santa Clara, CA) and mixed with 3 μL of test compound. After adding 100 μL of ^3H-methyltrienolone (PerkinElmer, Cat: NET590250UC, San Jose, CA), the plate was sealed and shaken at 300 rpm at 4° C. for 24 hours. Post incubation, 100 μL of radioligand adsorption buffer containing 10 mM Tris-HCl, pH 7.4; 1.5 mM EDTA; 1 mM DTT; 0.25% charcoal; 0.0025% dextran was added to individual well. Plate was shaken for 15 min at 4′C followed by centrifugation at 3000 rpm for 30 min at 4° C. 150 μL of supernatant was transferred into scint-tube (PerkinElmer, Cat: 6000192) and mixed with 2 mL of Ultima Gold Cocktail (PerkinElmer, Cat: 6013329). Radioactivity was counted using a TriCarb 2910 TR scintillation counter (PerkinElmer). Inhibition of the radioactivity by test articles were calculated using the equation below: % Inhibition=(1−(Assay well−Average_LC)/(Average_HC−Average_LC))×100%.

[1] = 2.5 nM enzyme, histone H3, 10 μM 32P-NAD+, read-out: PARP2 IC50
[2] = cell growth inhibition, three days of treatment

Sequence of Human recombinant PARP2 (Q9UGN5 whole entry): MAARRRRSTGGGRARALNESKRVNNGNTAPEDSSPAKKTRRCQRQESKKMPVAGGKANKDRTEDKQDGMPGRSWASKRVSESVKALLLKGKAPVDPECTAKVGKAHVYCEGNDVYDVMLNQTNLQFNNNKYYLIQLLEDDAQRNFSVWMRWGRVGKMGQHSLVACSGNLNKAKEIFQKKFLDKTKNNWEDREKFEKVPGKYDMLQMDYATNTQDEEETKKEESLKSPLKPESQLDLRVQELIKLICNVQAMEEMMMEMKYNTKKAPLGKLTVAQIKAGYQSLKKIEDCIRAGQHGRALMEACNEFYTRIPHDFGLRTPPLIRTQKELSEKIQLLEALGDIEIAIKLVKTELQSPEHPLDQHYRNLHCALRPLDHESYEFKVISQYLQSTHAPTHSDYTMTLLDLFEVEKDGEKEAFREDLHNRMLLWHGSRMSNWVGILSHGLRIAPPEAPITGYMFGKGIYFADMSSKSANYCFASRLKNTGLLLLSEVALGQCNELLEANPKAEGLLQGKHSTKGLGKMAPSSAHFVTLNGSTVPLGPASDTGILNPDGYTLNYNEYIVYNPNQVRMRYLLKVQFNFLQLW

C[C@]12CCC(=O)C[C@@H]1CC[C@@H]1[C@@H]2CC[C@@]2(C)[C@H]1CC[C@@]2(O)CCCN1CCN(C(=O)c2cc(Cc3n[nH]c(=O)c4ccccc34)ccc2F)CC1 [Compound 1.119, 4-(4-fluoro-3-(4-(3-((5S,8R,9S,10S,13S,14S,17R)-17-hydroxy-10,13-dimethyl-3-oxohexadecahydro-1H-cyclopenta[a]phenanthren-17-yl)propyl)piperazine-1-carbonyl)benzyl)phthalazin-1(2H)-one]
IC50 (22RV1 cells): 2900 nM
IC50 (Human recombinant PARP2; [1]): 0.3 nM

O=C(c1ccc(OCCN2CCN(C(=O)c3cc(Cc4n[nH]c(=O)c5ccccc45)ccc3F)CC2)cc1)c1c(-c2ccc(O)cc2)sc2cc(O)ccc12 [Compound 2.13, 4-(4-fluoro-3-(4-(2-(4-(6-hydroxy-2-(4-hydroxyphenyl)benzo[b]thiophene-3-carbonyl)phenoxy)ethyl)piperazine-1-carbonyl)benzyl)phthalazin-1(2H)-one]
IC50 (22RV1 cells; [2]): 1690 nM
IC50 (Human recombinant PARP2; [1]): 0.5 nM

CC1(C)C(=O)N(c2ccc(C#N)c(C(F)(F)F)c2)C(=S)N1c1ccc(C(=O)NCCCCCCNCc2ccc(-c3[nH]c4cc(F)cc5c4c3CCNC5=O)cc2)c(F)c1 [Compound 1.5, 4-(3-(4-cyano-3-(trifluoromethyl)phenyl)-5,5-dimethyl-4-oxo-2-thioxoimidazolidin-1-yl)-2-fluoro-N-(6-((4-(8-fluoro-1-oxo-2,3,4,6-tetrahydro-1H-azepino[5,4,3-cd]indol-5-yl)benzyl)amino)hexyl)benzamide]
IC50 (22RV1 cells): 4500 nM
IC50 (Human recombinant PARP2): 2 nM

C[C@]12CCC(=O)C[C@@H]1CC[C@@H]1[C@@H]2CC[C@@]2(C)[C@H]1CC[C@@]2(O)CCC(=O)N1CCN(C(=O)c2cc(Cc3n[nH]c(=O)c4ccccc34)ccc2F)CC1 (stereo in doubt) [Compound 1.117, 4-(4-fluoro-3-(4-(3-((5S,8R,9S,10S,13S,14S,17R)-17-hydroxy-10,13-dimethyl-3-oxohexadecahydro-1H-cyclopenta[a]phenanthren-17-yl)propanoyl)piperazine-1-carbonyl)benzyl)phthalazin-1(2H)-one]
IC50 (22RV1 cells; [2]): 440 nM
IC50 (Human recombinant PARP2; [1]): 0.1 nM

C[C@]12CCC(=O)C[C@@H]1CC[C@@H]1[C@@H]2CC[C@@]2(C)[C@H]1CC[C@@]2(O)C#CCN1CCN(C(=O)c2cc(Cc3n[nH]c(=O)c4ccccc34)ccc2F)CC1 [Compound 1.118, 4-(4-fluoro-3-(4-(3-((5S,8R,9S,10S,13S,14S,17S)-17-hydroxy-10,13-dimethyl-3-oxohexadecahydro-1H-cyclopenta[a]phenanthren-17-yl)prop-2-ynyl)piperazine-1-carbonyl)benzyl)phthalazin-1(2H)-one]
IC50 (22RV1 cells; [2]): 9700 nM
IC50 (Human recombinant PARP2; [1]): 1 nM

C[C@]12CCC(=O)C[C@@H]1CC[C@@H]1[C@@H]2CC[C@]2(C)[C@@H](OCCCCCC(=O)N3CCN(C(=O)c4cc(Cc5n[nH]c(=O)c6ccccc56)ccc4F)CC3)CC[C@@H]12 [Compound 1.2, 4-(3-(4-(6-(((5S,8R,9S,10S,13S,14S,17S)-10,13-dimethyl-3-oxohexadecahydro-1H-cyclopenta[a]phenanthren-17-yl)oxy)hexanoyl)piperazine-1-carbonyl)-4-fluorobenzyl)phthalazin-1(2H)-one]
IC50 (22RV1 cells): 400 nM
IC50 (Human recombinant PARP2; [1]): 0.2 nM

C[C@]12CCC(=O)C[C@@H]1CC[C@@H]1[C@@H]2CC[C@]2(C)[C@@H](OCC(=O)N3CCN(C(=O)c4cc(Cc5n[nH]c(=O)c6ccccc56)ccc4F)CC3)CC[C@@H]12 [Compound 1.110, 4-(3-(4-(2-((5S,8R,9S,10S,13S,14S,17S)-10,13-dimethyl-3-oxohexadecahydro-1H-cyclopenta[a]phenanthren-17-yloxy)acetyl)piperazine-1-carbonyl)-4-fluorobenzyl)phthalazin-1(2H)-one]
IC50 (22RV1 cells; [2]): 840 nM
IC50 (Human recombinant PARP2; [1]): 0.2 nM

C[C@]12CCC(=O)C[C@@H]1CC[C@@H]1[C@@H]2CC[C@]2(C)[C@@H](OCCOCC(=O)N3CCN(C(=O)c4cc(Cc5n[nH]c(=O)c6ccccc56)ccc4F)CC3)CC[C@@H]12 [Compound 1.104, 4-(3-(4-(2-(2-((5S,8R,9S,10S,13S,14S,17S)-10,13-dimethyl-3-oxohexadeca hydro-1H-cyclopenta[a]phenanthren-17-yloxy)ethoxy)acetyl)piperazine-1-carbonyl)-4-fluorobenzyl)phthalazin-1(2H)-one]
IC50 (22RV1 cells; [2]): 1100 nM
IC50 (Human recombinant PARP2; [1]): 0.3 nM

C[C@]12CCC(F)(F)C[C@@H]1CC[C@@H]1[C@@H]2CC[C@]2(C)[C@@H](OCCCCCC(=O)N3CCN(C(=O)c4cc(Cc5n[nH]c(=O)c6ccccc56)ccc4F)CC3)CC[C@@H]12 [Compound 1.114, 4-(3-(4-(6-((5S,8R,9S,10S,13S,14S,17S)-3,3-difluoro-10,13-dimethylhexadecahydro-1H-cyclopenta[a]phenanthren-17-yloxy)hexanoyl)piperazine-1-carbonyl)-4-fluorobenzyl)phthalazin-1(2H)-one]
IC50 (22RV1 cells; [2]): 1300 nM
IC50 (Human recombinant PARP2; [1]): 1.9 nM
